Assay results as given in PubChem BioAssay AID330 (DTP/NCI, 2004).
Where “and” joins values, the source holds several entries; their conditions need not be identical. Equal entries are not always repeated. Toxic doses and inconclusive results are not listed. The calls were made as follows: active = survival T/C of 150% or more; inactive = T/C below 125% in these data.

System: P388 leukemia ip, CD2F1 mice, survival T/C
Assay: NCI In Vivo Anticancer Drug Screen. Data for tumor model P388 Leukemia (intraperitoneal) in CD2F1 (CDF1) mice
Details: endpoint: median survival time, higher = longer survival
Method in brief: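 Mice carrying the transplanted tumor received test compound or vehicle. Survival was recorded in each group, and the value is the treated-group measurement divided by that of the vehicle-treated control group.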

[1] = dose: 100.0 mg/kg/injection, schedule: Q01DX009 (ip), vehicle: saline
[2] = dose: 50.0 mg/kg/injection, schedule: Q01DX009 (ip), vehicle: Klucel (hydroxypropylcellulose) (HPC)
[3] = dose: 100.0 mg/kg/injection, schedule: Q01DX009 (ip), vehicle: Klucel (hydroxypropylcellulose) (HPC)
[4] = dose: 60.0 mg/kg/injection, schedule: Q01DX005 (ip), vehicle: Klucel (hydroxypropylcellulose) (HPC)
[5] = dose: 120.0 mg/kg/injection, schedule: Q01DX005 (ip), vehicle: Klucel (hydroxypropylcellulose) (HPC)
[6] = dose: 240.0 mg/kg/injection, schedule: Q01DX005 (ip), vehicle: Klucel (hydroxypropylcellulose) (HPC)
[7] = dose: 50.0 mg/kg/injection, schedule: Q01DX009 (ip), vehicle: saline with Tween-80
[8] = dose: 100.0 mg/kg/injection, schedule: Q01DX009 (ip), vehicle: saline with Tween-80
[9] = dose: 200.0 mg/kg/injection, schedule: Q01DX009 (ip), vehicle: saline with Tween-80

Measured: T/C

O=C(O)C1=COC(OC2OC(CO)C(O)C(O)C2O)C2C(CO)=CCC12 (stereo not drawn)
inactive: dose: 5.0 mg/kg/injection, schedule: Q01DX009 (ip), vehicle: saline with Tween-80 99 % of control and 108 % of control | dose: 10.0 mg/kg/injection, schedule: Q01DX009 (ip), vehicle: saline with Tween-80 108 % of control and 96 % of control | dose: 20.0 mg/kg/injection, schedule: Q01DX009 (ip), vehicle: saline with Tween-80 99 % of control and 104 % of control | dose: 40.0 mg/kg/injection, schedule: Q01DX009 (ip), vehicle: saline with Tween-80 95 % of control | dose: 80.0 mg/kg/injection, schedule: Q01DX009 (ip), vehicle: saline with Tween-80 99 % of control

Nc1c(CC(=O)O)cccc1C(=O)c1ccccc1
inactive: dose: 50.0 mg/kg/injection, schedule: Q01DX009 (ip), vehicle: saline 87 % of control | [1] 92 % of control

Cc1ccc(S(=O)(=O)n2cccn2)cc1
inactive: dose: 6.25 mg/kg/injection, schedule: Q01DX009 (ip), vehicle: distilled water + Tween-80 95 % of control | dose: 12.5 mg/kg/injection, schedule: Q01DX009 (ip), vehicle: distilled water + Tween-80 100 % of control | dose: 25.0 mg/kg/injection, schedule: Q01DX009 (ip), vehicle: distilled water + Tween-80 94 % of control | dose: 25.0 mg/kg/injection, schedule: Q01DX009 (ip), vehicle: other 88 % of control | dose: 50.0 mg/kg/injection, schedule: Q01DX009 (ip), vehicle: distilled water + Tween-80 105 % of control | dose: 100.0 mg/kg/injection, schedule: Q01DX009 (ip), vehicle: distilled water + Tween-80 99 % of control | dose: 100.0 mg/kg/injection, schedule: Q01DX009 (ip), vehicle: other 113 % of control | dose: 200.0 mg/kg/injection, schedule: Q01DX009 (ip), vehicle: other 104 % of control | dose: 400.0 mg/kg/injection, schedule: Q01DX009 (ip), vehicle: other 112 % of control

CN1C(=O)c2ccccc2N=CN1C(=O)Nc1ccccc1
inactive: dose: 50.0 mg/kg/injection, schedule: Q01DX005 (ip), vehicle: saline with Tween-80 94 % of control | dose: 100.0 mg/kg/injection, schedule: Q01DX005 (ip), vehicle: saline with Tween-80 90 % of control | dose: 200.0 mg/kg/injection, schedule: Q01DX005 (ip), vehicle: saline with Tween-80 88 % of control

CN(C)C1C(O)C2Oc3c(cc(O)c4c3C(=O)c3cc5c(c(O)c3C4=O)C(NC3CCCCC3)CC(C)(O)C5)C(C)(O2)C1O (stereo not drawn)
inactive: dose: 2.5 mg/kg/injection, schedule: Q01DX009 (ip), vehicle: other 102 % of control | dose: 5.0 mg/kg/injection, schedule: Q01DX009 (ip), vehicle: other 105 % of control | dose: 10.0 mg/kg/injection, schedule: Q01DX009 (ip), vehicle: other 112 % of control | dose: 40.0 mg/kg/injection, schedule: Q01DX009 (ip), vehicle: other 121 % of control

CN(C)C=Nc1cccnc1[N+](=O)[O-]
inactive: [2] 108 % of control | [3] 99 % of control | dose: 200.0 mg/kg/injection, schedule: Q01DX009 (ip), vehicle: Klucel (hydroxypropylcellulose) (HPC) 108 % of control

CCCCCCCCCCCCCCCCCC(=O)NN
inactive: dose: 100.0 mg/kg/injection, schedule: Q04DX003 (ip), vehicle: saline with Tween-80 94 % of control | dose: 200.0 mg/kg/injection, schedule: Q04DX003 (ip), vehicle: saline with Tween-80 87 % of control

CC1CN(S(=O)(=O)c2cc(Cl)c(Oc3ccc([N+](=O)[O-])cc3Cl)c(Cl)c2)CC(C)O1 (stereo not drawn)
inactive: [4] 106 % of control | [5] 101 % of control | [6] 97 % of control

CC(NC(=O)CNC(=O)CN)C(=O)O (stereo not drawn)
inactive: dose: 25.0 mg/kg/injection, schedule: Q01DX005 (ip), vehicle: saline 102 % of control | dose: 50.0 mg/kg/injection, schedule: Q01DX005 (ip), vehicle: saline 92 % of control | dose: 100.0 mg/kg/injection, schedule: Q01DX005 (ip), vehicle: saline 94 % of control | dose: 200.0 mg/kg/injection, schedule: Q01DX005 (ip), vehicle: saline 94 % of control

COc1ccc2c(c1)OC(C)(C)c1c-2n(C)c2c(F)cccc2c1=O
inactive: [4] 100 % of control | [5] 101 % of control | [6] 101 % of control

CN(C)c1ccc(C=Nc2ccc3c4c(cccc24)-c2ccccc2-3)cc1
inactive: [7] 93 % of control | [8] 86 % of control | [9] 89 % of control

CN1c2c(nc(N)[nH]c2=O)NCC1CCNc1ccc(C(=O)NC(CCC(=O)O)C(=O)O)cc1 (stereo not drawn)
inactive: dose: 25.0 mg/kg/injection, schedule: Q01DX009 (ip), vehicle: Klucel (hydroxypropylcellulose) (HPC) 115 % of control | [2] 115 % of control | dose: 75.0 mg/kg/injection, schedule: Q01DX005 (ip), vehicle: saline 100 % of control | dose: 75.0 mg/kg/injection, schedule: Q01DX005 (iv), vehicle: saline 100 % of control | dose: 75.0 mg/kg/injection, schedule: Q01DX009 (ip), vehicle: saline 105 % of control | dose: 75.0 mg/kg/injection, schedule: Q01DX009 (ip), vehicle: sodium bicarbonate 112 % of control | [3] 124 % of control | [1] 113 % of control | dose: 150.0 mg/kg/injection, schedule: Q01DX005 (ip), vehicle: saline 107 % of control | dose: 150.0 mg/kg/injection, schedule: Q01DX005 (iv), vehicle: saline 107 % of control | dose: 150.0 mg/kg/injection, schedule: Q01DX009 (ip), vehicle: saline 108 % of control | dose: 150.0 mg/kg/injection, schedule: Q01DX009 (ip), vehicle: sodium bicarbonate 114 % of control | dose: 300.0 mg/kg/injection, schedule: Q01DX005 (ip), vehicle: saline 109 % of control and 123 % of control | dose: 300.0 mg/kg/injection, schedule: Q01DX005 (iv), vehicle: saline 108 % of control and 113 % of control | dose: 300.0 mg/kg/injection, schedule: Q01DX009 (ip), vehicle: saline 116 % of control | dose: 300.0 mg/kg/injection, schedule: Q01DX009 (ip), vehicle: sodium bicarbonate 120 % of control | dose: 600.0 mg/kg/injection, schedule: Q01DX005 (ip), vehicle: saline 107 % of control and 118 % of control | dose: 600.0 mg/kg/injection, schedule: Q01DX005 (iv), vehicle: saline 104 % of control and 122 % of control | dose: 600.0 mg/kg/injection, schedule: Q01DX009 (ip), vehicle: saline 119 % of control | dose: 600.0 mg/kg/injection, schedule: Q01DX009 (ip), vehicle: sodium bicarbonate 122 % of control | dose: 800.0 mg/kg/injection, schedule: Q01DX009 (ip), vehicle: Klucel (hydroxypropylcellulose) (HPC) 99 % of control

C=C(C)c1nc(N)nc(NC)n1
inactive: dose: 100.0 mg/kg/injection, schedule: Q04DX002 (ip), vehicle: Klucel (hydroxypropylcellulose) (HPC) 98 % of control | dose: 200.0 mg/kg/injection, schedule: Q04DX002 (ip), vehicle: Klucel (hydroxypropylcellulose) (HPC) 107 % of control | dose: 400.0 mg/kg/injection, schedule: Q04DX002 (ip), vehicle: Klucel (hydroxypropylcellulose) (HPC) 98 % of control

CCCn1c(O)c(C=N)c(=O)n(CCC)c1=O
inactive: [8] 95 % of control | [9] 100 % of control | dose: 400.0 mg/kg/injection, schedule: Q01DX009 (ip), vehicle: saline with Tween-80 100 % of control

Cc1ccc(S(=O)(=O)N(CCC(c2ccccc2)c2ccccc2)S(=O)(=O)c2ccc(C)cc2)cc1
inactive: dose: 25.0 mg/kg/injection, schedule: Q01DX009 (ip), vehicle: saline with Tween-80 102 % of control | [7] 98 % of control | [8] 100 % of control

O=[N+]([O-])c1ccc(N(CCO)CCO)c2c1no[n+]2[O-]
inactive: dose: 3.12 mg/kg/injection, schedule: Q01DX005 (ip), vehicle: saline with Tween-80 117 % of control | dose: 6.25 mg/kg/injection, schedule: Q01DX005 (ip), vehicle: saline with Tween-80 122 % of control | dose: 8.0 mg/kg/injection, schedule: Q04DX003 (ip), vehicle: saline 111 % of control | dose: 16.0 mg/kg/injection, schedule: Q04DX003 (ip), vehicle: saline 121 % of control

O=C(NCCCl)Oc1ccc(Cl)cc1Cl
inactive: dose: 12.5 mg/kg/injection, schedule: Q01DX005 (ip), vehicle: Klucel (hydroxypropylcellulose) (HPC) 100 % of control | dose: 25.0 mg/kg/injection, schedule: Q01DX005 (ip), vehicle: Klucel (hydroxypropylcellulose) (HPC) 106 % of control | dose: 50.0 mg/kg/injection, schedule: Q01DX005 (ip), vehicle: Klucel (hydroxypropylcellulose) (HPC) 108 % of control and 113 % of control
